Data published in the supplement of paper PMC10307832.

Key:
Experiment in all cases: relative viability (nuclei count vs DMSO), 5 days (fraction); higher = more cells survive
[1] = compound: CC(O)(CS(=O)(=O)c1ccc(F)cc1)C(=O)Nc1ccc(C#N)c(C(F)(F)F)c1 [Bicalutamide] + Nc1ncn([C@H]2C[C@H](O)[C@@H](CO)O2)c(=O)n1 [Decitabine] (partner 2 µM)
Method in brief: (§1)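 One day after seeding in 1536-well plates, lung cancer cell lines were dosed by pin tool. Dosing was either single-drug or a fixed anchor-drug dose plus five library-drug doses (not always all listed) in √10 steps. After 5 days, nuclei were stained in one fix-and-stain step and counted on 4× images, and relative viability is the nuclei count of treated wells over that of vehicle wells, given as the median of duplicate plates.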

[2] = compound: CC(O)(CS(=O)(=O)c1ccc(F)cc1)C(=O)Nc1ccc(C#N)c(C(F)(F)F)c1 [Bicalutamide] + C[C@@H](Oc1cc(-c2cnn(C3CCNCC3)c2)cnc1N)c1c(Cl)ccc(F)c1Cl [Crizotinib] (partner 1 µM)
Method in brief: as §1

[3] = compound: C(C(=O)C(=O)O)Br [Bromopyruvate] + CC(=O)c1c(C)c2cnc(Nc3ccc(N4CCNCC4)cn3)nc2n(C2CCCC2)c1=O [Palbociclib] (partner 0.5 µM)
Method in brief: as §1

Bromopyruvate + AZD7762 = compound: C(C(=O)C(=O)O)Br [Bromopyruvate] + NC(=O)Nc1cc(-c2cccc(F)c2)sc1C(=O)N[C@H]1CCCNC1 [AZD7762] (partner 0.2 µM)
Method in brief: as §1

Cell Line	relative viability ([1]; first compound 0.08 µM)	relative viability ([1]; first compound 0.253 µM)	relative viability ([1]; first compound 0.8 µM)	relative viability ([1]; first compound 2.53 µM)	relative viability ([2]; first compound 0.08 µM)	relative viability ([2]; first compound 0.253 µM)	relative viability ([2]; first compound 0.8 µM)	relative viability ([2]; first compound 2.53 µM)	relative viability ([3]; first compound 1 µM)	relative viability ([3]; first compound 3.162 µM)	relative viability ([3]; first compound 10 µM)	relative viability ([3]; first compound 31.62 µM)	relative viability ([3]; first compound 100 µM)	relative viability (Bromopyruvate + AZD7762; first compound 1 µM)	relative viability (Bromopyruvate + AZD7762; first compound 3.162 µM)	relative viability (Bromopyruvate + AZD7762; first compound 10 µM)	relative viability (Bromopyruvate + AZD7762; first compound 31.62 µM)	relative viability (Bromopyruvate + AZD7762; first compound 100 µM)
LXF-289	0.346	0.398	0.403	0.403	0.815	0.79	0.797	0.807	0.625	0.649	0.629	0.637	0.638	1.07	1.12	1.08	1.07	1.26
NCI-H3122	0.4	0.45	0.449	0.455	0.281	0.26	0.277	0.281	0.167	0.202	0.197	0.178	0.13	1.03	0.967	1.04	0.989	0.921
NCI-H1755	0.737	0.636	0.721	0.741	0.901	0.803	0.849	0.791	0.477	0.43	0.45	0.431	0.456	0.432	0.476	0.381	0.51	0.473
HCC-78	0.726	0.589	0.819	0.71	0.355	0.362	0.37	0.319	0.446	0.471	0.455	0.514	0.407	0.481	0.624	0.565	0.549	0.463
LOU-NH91	0.769	0.817	0.83	0.836	0.726	0.681	0.766	0.744	0.53	0.545	0.494	0.544	0.587	0.801	0.755	0.742	0.771	0.837
NCI-H322M	0.656	0.494	0.649	0.735	1.05	0.858	1.16	0.868	0.463	0.438	0.447	0.421	0.454	0.623	0.58	0.523	0.581	0.628
HCC-827	0.337	0.252	0.384	0.351	0.922	0.911	0.942	0.952	0.434	0.542	0.472	0.541	0.517	0.175	0.195	0.198	0.203	0.19
NCI-H1975	0.384	0.36	0.436	0.408	0.97	0.915	1.08	0.781	0.66	0.619	0.566	0.551	0.569	0.825	0.691	0.721	0.785	0.703
NCI-H1651	0.6	0.618	0.779	0.655	0.868	0.861	0.912	0.892	0.479	0.477	0.542	0.519	0.492	0.441	0.491	0.474	0.403	0.4
NCI-H460	0.55	0.468	0.598	0.484	0.896	0.798	1.28	0.825	0.161	0.247	0.148	0.196	0.186	0.676	0.698	0.721	0.565	0.621
LCLC-103H	0.714	0.717	0.717	0.756	1.06	1.04	1	1.02	0.505	0.486	0.455	0.415	0.528	0.726	0.804	0.951	0.751	0.901
LCLC-97TM1	0.222	0.202	0.305	0.234	0.478	0.369	0.317	0.301	0.203	0.21	0.276	0.239	0.214	0.224	0.375	0.207	0.275	0.236
NCI-H838	0.484	0.461	0.508	0.371	0.823	0.762	0.833	0.602	0.19	0.251	0.229	0.237	0.242	0.914	0.913	1.02	0.949	0.935
NCI-H1355	0.367	0.348	0.395	0.376	1.12	0.993	1.14	1.04	0.388	0.401	0.356	0.373	0.407	0.744	0.882	0.664	0.737	0.648
HOP-62	0.25	0.2	0.241	0.221	0.807	0.936	1.33	1	0.432	0.443	0.416	0.343	0.341	0.498	0.573	0.473	0.444	0.665
NCI-H2087	0.295	0.237	0.302	0.286	1	0.993	0.887	0.971	0.222	0.232	0.19	0.221	0.227	1.19	1.4	1.36	1.2	1.32
